The target in assay [1] is histone deacetylase (HDAC Enzyme). The assay is described as follows: Inhibition of Histone Deacetylase Enzymatic Activity (Boc-Lys(Ac)-AMC, Fluor-de-Lys developer). In kind it is biochemical. The method, then: The following protocol is used to assay the compounds of the invention.
The mixture is pre-incubated for 5 minutes at room temperature. The reaction is started by bringing the temperature to 37° C. and adding 16 μl substrate. Total reaction volume is 50 μl.
In the Tables 8, 9 and 10, A≦[…]<B≦0.1 μM; 0.1 μM<C≦1 μM; and 1 μM<D≦10 μM.

Assay [2] relates to HDAC in primary mouse cortical neurons. Put plainly: Whole-Cell Histone Deacetylase (HDAC) Inhibition Assay in Primary Mouse Cortical Cultures. In kind it is cell-based. The method, then: Primary neocortical cultures are established through the dissection of the neocortex from E17 embryos harvested from time-pregnant Balb/C mice. Following dissection, the neocortical tissue specimens undergo digestion by incubation at 37° C. for 10 minutes in dissection medium (1×HBSS/10 mM HEPES/1 mM Sodium Pyruvate) supplemented with (0.25%) Trypsin and (0.1%) DNase I. Digested tissue is washed and resuspended in plating medium (NeuroBasal/10% HS/0.5 mM L-Glutamine (Invitrogen Corporation)) for trituration. Additional plating medium is added, and the contents are passed over a 70 um cell-strainer. The cell-density is quantified using a hemacytometer, and dilutions are made to allow for the plating of 50000 cells/well/100 uL in 96-well PDL-coated plates. Plates are incubated for 4-5 hours in 37° C./5% CO2-incubator, after which time the entire volume is exchanged to feeding medium (NeuroBasal/2% B-27 Serum-free supplement/0.5 mM L-Glutamine/1% Penicillin-Streptomycin (Invitrogen Corporation)). The cultures undergo two 50% fresh feeding medium exchanges at 3 days in vitro (DIV3), and again at DIV7.
Compounds for testing are resuspended in dimethyl sulphoxide (DMSO), and further diluted in DMSO for a ten-point dose-response curve, with appropriate controls. Each master plate is assayed in triplicate. […] Three DIV9 culture plates are leveled to 50 uL/well, onto which each has overlaid 50 uL/well of the diluted daughter plate. The plates are returned to the 37° C./5% CO2-incubator for 16-18 hours.
The next step of the assay involves the exposure of a HDAC colorimetric substrate, comprising an acetylated lysine side chain, to the compound-treated neuronal cultures. Based on the ability of the compound to inhibit HDAC activity in the neuronal cultures, the substrate is deacetylated by HDACs, and subsequently sensitized. […] Compound-incubated culture plates are again leveled to 50 uL/well and 2 uL/well of 7.5 mM BOC-Lys (Ac)-AMC substrate is added and thoroughly mixed. Plates are returned to the 37° C./5% CO2-incubator for 1 hour.
The final addition to the culture plates entails treatment with a Fluor de LyS™-based developer (BIOMOL Research Laboratories, Inc.) to produce a fluorophore, which is analyzed using a spectrophotometer. The developer solution (1× Fluor de Lys™/1% NP-40/1 uM TSA in HDAC Buffer Solution) is prepared, and 50 uL/well is added to each of the wells of the culture plates. […] The plates are returned to the 37° C./5% CO2-incubator for 10-15 minutes, after which time, they are removed and set in the dark at room temperature for 5-10 minutes.

The mark [3] stands for this setting: Table 10, read-out: HDAC Inhibition (IC50 μM) HDAC Enzyme.
The mark [4] stands for this setting: Table 10, whole-cell, read-out: HDAC Inhibition (IC50 μM) WC mouse cortical neurons.
The mark [5] stands for this setting: read-out: HDAC Inhibtion (IC50 μM) HDAC Enzyme.
The mark [6] stands for this setting: Table 9, read-out: HDAC Inhibition (IC50 μM) HDAC Enzyme.

Read-outs that look alike come from different tables or passages of the source.

With `O=C(NO)c1ccc(OCCN2C(=O)c3ccccc3Oc3cc(Cl)ccc32)cc1`, the IC50 was less than 0.05 µM in assay [1] (setting [3]) and 1 to 5 µM in assay [2] (setting [4]).

`O=C(NO)c1ccc(OCCN2C(=O)c3cccnc3Oc3ccccc32)cc1`: the IC50 is less than 0.05 µM in assay [1] (setting [3]) and less than 1 µM in assay [2] (setting [4]).

Take `O=C(NO)c1ccc(OCCN2C(=O)CCOc3ccccc32)cc1`: the IC50 in assay [1] (setting [3]) was less than 0.05 µM; in assay [2] (setting [4]), less than 1 µM.

On to `O=C(NO)c1ccc(OCCN2C(=O)c3ccccc3Oc3ccccc32)c(F)c1`, for which the IC50 is 0.05 to 0.1 µM in assay [1] (setting [3]) and less than 1 µM in assay [2] (setting [4]).

In the case of `O=C(NO)c1cccc(OCCN2C(=O)c3ccccc3Oc3ccccc32)c1`, the IC50 in assay [1] (setting [3]) was 0.1 to 1 µM; in assay [2] (setting [4]), greater than 15 µM.

As for `O=C(NO)c1ccc(OCCN2CCOc3ccccc3C2=O)cc1`, the values for the IC50 in assay [1] (setting [3]) and in assay [2] (setting [4]) were less than 0.05 µM and 1 to 5 µM, respectively.

`O=C(NO)c1ccc(OCC(=O)N2Cc3ccccc3Oc3ccccc32)cc1`: the IC50 in assay [1] (setting [3]) lay in the range of 0.1 to 1 µM; in assay [2] (setting [4]), 1 to 5 µM.

With `O=C(NO)c1ccc(OCCN2C(=O)c3cc(F)ccc3Oc3ccccc32)cc1`, the IC50 in assay [1] (setting [3]) was less than 0.05 µM; in assay [2] (setting [4]), less than 1 µM.

On to `O=C(NO)c1ccc(C2=Nc3ccccc3Oc3ccsc32)cc1` [(Z)-4-(benzo[b]thieno[2,3-f][1,4]oxazepin-10-yl)-N-hydroxybenzamide], for which the IC50 in assay [1] (setting [5]) was less than 0.05 µM; in assay [2] (whole cell, read-out: HDAC Inhibtion (IC50 μM) WC mouse cortical neurons), 1 to 5 µM.

In the case of `O=C(NO)c1ccc(OCCN2C(=O)c3ccccc3Oc3ccccc32)cc1`, the IC50 in assay [1] (setting [3]) was less than 0.05 µM; in assay [2] (setting [4]) it was less than 1 µM.

On to `O=C(NO)c1ccc(OCCN2C(=O)c3ccncc3Oc3ccccc32)cc1`, for which the IC50 in assay [1] (setting [3]) is less than 0.05 µM; in assay [2] (setting [4]) it was less than 1 µM.

Regarding `CN1CCC2=C(C1)Oc1ccccc1N(CCOc1ccc(C(=O)NO)cc1)C2=O`, the IC50 is less than 0.05 µM in assay [1] (setting [3]) and less than 1 µM in assay [2] (setting [4]).

As for `O=C(NO)c1cnc(N2C[C@@H]3C[C@H]2CN3c2ccc(C(F)(F)F)cc2F)nc1` [2-((1S,4S)-5-(2-fluoro-4-(trifluoromethyl)phenyl)-2,5-diazabicyclo[2.2.1]heptan-2-yl)-N-hydroxypyrimidine-5-carboxamide], the IC50 in assay [1] (setting [6]) is less than 0.05 µM.

On to `O=C(CCCCCCN1C(=O)c2ccccc2N(C2CC2)c2ccccc21)NO`, for which the IC50 in assay [1] (setting [3]) is 0.1 to 1 µM.

`O=C(NO)c1cnc(N2C[C@H]3C[C@@]3(c3ccc(C(F)(F)F)cc3)C2)nc1`: the IC50 in assay [1] (setting [3]) lay within 0.1 to 1 µM.

Turning to `O=C(NO)c1cnc(N2C[C@@H]3C[C@H]2CN3C(=O)OCc2cccnc2)nc1` [(1S,4S)-pyridin-3-ylmethyl 5-(5-(hydroxycarbamoyl)pyrimidin-2-yl)-2,5-diazabicyclo[2.2.1]heptane-2-carboxylate], the IC50 in assay [1] (setting [6]) was less than 0.05 µM.

In the case of `CCN1c2ccccc2N=C(c2ccc(C(=O)NO)cc2)c2ccccc21` [(Z)-4-(5-ethyl-5H-dibenzo[b,e][1,4]diazepin-11-yl)-N-hydroxybenzamide], the IC50 in assay [1] (setting [5]) was 0.05 to 0.1 µM.

On to `CN(C)Cc1cccc(N2C[C@@H]3C[C@H]2CN3c2ncc(C(=O)NO)cn2)c1` [2-((1S,4S)-5-(3-((dimethylamino)methyl)phenyl)-2,5-diazabicyclo[2.2.1]heptan-2-yl)-N-hydroxypyrimidine-5-carboxamide], for which the IC50 in assay [1] (setting [6]) is less than 0.05 µM.

As to `O=C(NO)c1cnc(N2C[C@H]3C[C@@]3(c3ccccc3)C2)nc1` [N-hydroxy-2-((1R,5S)-1-phenyl-3-azabicyclo[3.1.0]hexan-3-yl)pyrimidine-5-carboxamide], the IC50 in assay [1] (setting [3]) was 0.1 to 1 µM.

As for `O=C(NO)c1cnc(N2C[C@@H]3C[C@H]2CN3C(=O)C(c2ccccc2)c2ccccc2)nc1` [2-((1S,4S)-5-(2,2-diphenylacetyl)-2,5-diazabicyclo[2.2.1]heptan-2-yl)-N-hydroxypyrimidine-5-carboxamide], in assay [1] (setting [6]), the IC50 lay within 0.05 to 0.1 µM.

`O=C(NO)c1cnc(C2c3ccccc3C=Cc3ccccc32)nc1`: the IC50 in assay [1] (setting [3]) was in the range of 0.1 to 1 µM.

`O=C(NO)c1cnc(N2C[C@@H]3C[C@H]2CN3c2cccc(OC(F)(F)F)c2)nc1` [N-hydroxy-2-((1S,4S)-5-(3-(trifluoromethoxy)phenyl)-2,5-diazabicyclo[2.2.1]heptan-2-yl)pyrimidine-5-carboxamide]: the IC50 in assay [1] (setting [6]) was less than 0.05 µM.

As to `O=C(NO)c1ccc(N2C(=O)c3ccccc3Oc3ccccc32)cc1` [N-hydroxy-4-(11-oxodibenzo[b,f][1,4]oxazepin-10(11H)-yl)benzamide], the IC50 in assay [1] (setting [3]) was 0.1 to 1 µM.

For `O=C(NO)c1cnc(N2C[C@@H]3C[C@H]2CN3c2ccc(Cl)cc2)nc1` [2-((1S,4S)-5-(4-chlorophenyl)-2,5-diazabicyclo[2.2.1]heptan-2-yl)-N-hydroxypyrimidine-5-carboxamide], in assay [1] (setting [6]), the IC50 is less than 0.05 µM.

As to `O=C(NO)c1cnc(N2C[C@@H]3C[C@H]2CN3c2noc3ccccc23)nc1` [2-((1S,4S)-5-(benzo[d]isoxazol-3-yl)-2,5-diazabicyclo[2.2.1]heptan-2-yl)-N-hydroxypyrimidine-5-carboxamide], the IC50 in assay [1] (setting [6]) was less than 0.05 µM.

As to `CN(C)C(=O)c1cccc(N2C[C@@H]3C[C@H]2CN3c2ncc(C(=O)NO)cn2)c1` [2-((1S,4S)-5-(3-(dimethylcarbamoyl)phenyl)-2,5-diazabicyclo[2.2.1]heptan-2-yl)-N-hydroxypyrimidine-5-carboxamide], the IC50 in assay [1] (setting [6]) is less than 0.05 µM.

Consider `O=C(NO)c1ccc(CNC2=Nc3ccccc3Oc3ccccc32)cc1` [(E)-4-((dibenzo[b,f][1,4]oxazepin-11-ylamino)methyl)-N-hydroxybenzamide], for which the IC50 in assay [1] (setting [5]) is less than 0.05 µM.

Consider `O=C(NO)c1ccc(C2=Nc3ccccc3Oc3ccc(F)cc32)cc1` [(Z)-4-(2-fluorodibenzo[b,f][1,4]oxazepin-11-yl)-N-hydroxybenzamide], for which the IC50 in assay [1] (setting [5]) was less than 0.05 µM.

Consider `Cc1ccc(N2C[C@@H]3C[C@H]2CN3c2ccc(C(=O)NO)cc2)cc1` [N-hydroxy-4-((1S,4S)-5-p-tolyl-2,5-diazabicyclo[2.2.1]heptan-2-yl)benzamide], for which the IC50 in assay [1] (setting [6]) fell in the range of 0.1 to 1 µM.

With `O=C(NO)c1ccc(C2=Nc3ccc(C(F)(F)F)nc3Oc3ccccc32)cc1` [(Z)-N-hydroxy-4-(2-(trifluoromethyl)benzo[f]pyrido[2,3-b][1,4]oxazepin-6-yl)benzamide], the IC50 in assay [1] (setting [5]) is 0.05 to 0.1 µM.

For the molecule `Cc1cccc(N2C[C@H]3C[C@@H]2CN3c2ncc(C(=O)NO)cn2)c1` [N-hydroxy-2-((1R,4R)-5-m-tolyl-2,5-diazabicyclo[2.2.1]heptan-2-yl)pyrimidine-5-carboxamide], the IC50 in assay [1] (setting [6]) fell in the range of 0.05 to 0.1 µM.

`O=C(NO)c1ccc(CN2Cc3ccccc3Oc3ccccc32)cc1` [4-(dibenzo[b,f][1,4]oxazepin-10(11H)-ylmethyl)-N-hydroxybenzamide]: the IC50 in assay [1] (setting [3]) is less than 0.05 µM.

In the case of `O=C(NO)c1ccc(C2=Nc3ccccc3N(C3CC3)c3ccccc32)cc1` [(Z)-4-(5-cyclopropyl-5H-dibenzo[b,e][1,4]diazepin-11-yl)-N-hydroxybenzamide], the IC50 in assay [1] (setting [5]) was in the range of 0.1 to 1 µM.

In general, IC50 refers to the concentration that gives 50% inhibition.

For the origin of these results see patent US8399452B2, “Dibenzo[b,f][1,4]oxazepin-11-yl-N-hydroxybenzamides as HDAC inhibitors” (Methylgene Inc., priority 2006, dated 2013).
